This assay has as its target T1, human mAChR M4 (Homo sapiens, UniProt P08173).
T1 construct: expressed in transfected cells
T1 sequence (P08173 1-479): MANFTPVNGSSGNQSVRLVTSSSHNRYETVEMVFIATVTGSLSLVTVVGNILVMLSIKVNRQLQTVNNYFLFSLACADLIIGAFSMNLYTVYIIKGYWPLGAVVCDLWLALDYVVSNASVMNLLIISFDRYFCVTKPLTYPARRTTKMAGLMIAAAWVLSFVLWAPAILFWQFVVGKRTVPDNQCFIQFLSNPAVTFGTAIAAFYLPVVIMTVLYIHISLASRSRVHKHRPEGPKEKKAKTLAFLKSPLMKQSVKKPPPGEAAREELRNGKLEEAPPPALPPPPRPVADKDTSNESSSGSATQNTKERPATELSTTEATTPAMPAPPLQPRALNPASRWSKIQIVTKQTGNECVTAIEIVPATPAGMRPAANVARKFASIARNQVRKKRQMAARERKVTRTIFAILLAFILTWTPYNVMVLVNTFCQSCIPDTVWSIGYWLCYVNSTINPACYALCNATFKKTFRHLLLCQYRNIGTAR
Put plainly: mAChR M4 cell-based functional assay (calcium mobilization, CHO-K1 hM4-Gqi5 cells). The conditions noted are these: for Emax at 30 µM: CHO-K1, % ACh maximum at 30 μM, human M4; for EC50: positive allosteric modulator activity, increase in the EC20 acetylcholine response, CHO-K1 hM4-Gqi5 cells, read-out: Human M4 EC50. A digest of the protocol: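 CHO-K1 cells stably expressing human M4 with chimeric Gqi5, loaded with Fluo-4 AM; compounds given as 11-point 1:3 curves and calcium flux read on FDSS at 1 Hz. Acetylcholine EC20 added at 144 s, EC80 at 230 s; agonist, PAM (EC20 potentiation) and antagonist (EC80 inhibition) EC50/Emax from four-parameter fits.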
On the technique in general: Calcium flux is commonly read through the fluorescence of an indicator in the cells.

As usually defined, the Emax is the greatest response seen or fitted, relative to the assay's reference. In general, EC50 refers to the concentration needed to bring the measured effect to its halfway point. Take `COc1cnc(Cl)c(-c2cnc3c(c2)CN(c2nnc(C#N)c(C)c2C)CC3)c1` [compound 52, 6-[3-(2-chloro-5-methoxy-3-pyridyl)-7,8-dihydro-5H-1,6-naphthyridin-6-yl]-4,5-dimethyl-pyridazine-3-carbonitrile]: the Emax at 30 µM was 64% and the EC50 is 0.305 µM.
For the compound `Cc1cc(C(=O)NCc2ccncc2Cl)nnc1N1CCc2ncc(C(F)(F)F)cc2C1` [Example 497, N-((3-chloropyridin-4-yl)methyl)-5-methyl-6-(3-(trifluoromethyl)-7,8-dihydro-1,6-naphthyridin-6(5H)-yl)pyridazine-3-carboxamide], the maximal response (Emax) at 30 µM is 101% and the EC50 was determined as 0.064 µM.
For `Cc1cc(C(=O)N2CC3(COC3)C2)nnc1N1CCc2ncc(Nc3ccnn3C)cc2C1` [Example 561, (5-methyl-6-(3-((1-methyl-1H-pyrazol-5-yl)amino)-7,8-dihydro-1,6-naphthyridin-6(5H)-yl)pyridazin-3-yl)(2-oxa-6-azaspiro[3.3]heptan-6-yl)methanone], the Emax at 30 µM was 82% and the EC50 worked out at 0.169 µM.
With `Cc1cc(C(=O)NCc2ccc(-n3cccn3)cc2)cnc1N1CCc2ncccc2C1` [compound 67, 6-(7,8-dihydro-5H-1,6-naphthyridin-6-yl)-5-methyl-N-[(4-pyrazol-1-ylphenyl)methyl]pyridine-3-carboxamide], the Emax at 30 µM was found to be 55% and the concentration giving a half-maximal response (EC50) is 1.94 µM.
For the compound `Cc1cc(C(=O)N2CC3(COC3)C2)nnc1N1CCc2ncc(N3CCO[C@H](C)C3)cc2C1` [Example 575, (R)-(5-methyl-6-(3-(2-methylmorpholino)-7,8-dihydro-1,6-naphthyridin-6(5H)-yl)pyridazin-3-yl)(2-oxa-6-azaspiro[3.3]heptan-6-yl)methanone], the Emax at 30 µM was found to be 75% and the EC50 amounted to 0.088 µM.
On to `Cc1cc(C#N)cnc1N1CCc2ncc(Br)cc2C1` [Example 594, 6-(3-bromo-7,8-dihydro-1,6-naphthyridin-6(5H)-yl)-5-methylnicotinonitrile], for which the EC50 is 0.132 µM. Besides, the Emax (CHO-K1) is 84%.
In the case of `Cc1cc(C(=O)NCc2ccc3nn[nH]c3c2)cnc1N1CCc2ncccc2C1` [compound 150, N-(3H-benzotriazol-5-ylmethyl)-6-(7,8-dihydro-5H-1,6-naphthyridin-6-yl)-5-methyl-pyridine-3-carboxamide], the maximal effect (Emax) at 30 µM was 61% and the EC50 was found to be 4.68 µM.
Take `[2H]C1([2H])Cc2ncc(-c3c(C)noc3C)cc2C([2H])([2H])N1c1nnc(C#N)cc1C` [Example 621, 6-(3-(3,5-dimethylisoxazol-4-yl)-7,8-dihydro-1,6-naphthyridin-6(5H)-yl-5,5,7,7-d4)-5-methylpyridazine-3-carbonitrile]: the Emax at 30 µM stood at 85% and the EC50 came out at 0.318 µM.
As for `Cc1cc(C#N)cnc1N1CCc2ncc(-c3cnn(CC(F)(F)F)c3)cc2C1` [compound 100, 5-methyl-6-[3-[1-(2,2,2-trifluoroethyl)pyrazol-4-yl]-7,8-dihydro-5H-1,6-naphthyridin-6-yl]pyridine-3-carbonitrile], the Emax at 30 µM was found to be 80% and the EC50 turned out to be 0.188 µM.
As to `Cc1nc(C)c(C)c(N2CCc3ncc(Oc4ccccc4F)cc3C2)n1` [compound 260, 3-(2-fluorophenoxy)-6-(2,5,6-trimethylpyrimidin-4-yl)-5,6,7,8-tetrahydro-1,6-naphthyridine], the Emax at 30 µM was 87% and the EC50 was determined as 0.154 µM.
For the compound `Cc1cncc(-c2cnc3c(c2)CN(c2nnc(C#N)c(C)c2C)CC3)c1` [Example 435, 4,5-dimethyl-6-(3-(5-methylpyridin-3-yl)-7,8-dihydro-1,6-naphthyridin-6(5H)-yl)pyridazine-3-carbonitrile], the Emax at 30 µM came out at 61% and the EC50 was 0.914 µM.
The corresponding values for `Cc1cc(C(=O)N2CCCC2)nnc1N1CCc2ncc(C(F)(F)F)cc2C1` [Example 502, (5-methyl-6-(3-(trifluoromethyl)-7,8-dihydro-1,6-naphthyridin-6(5H)-yl)pyridazin-3-yl)(pyrrolidin-1-yl)methanone] are 105% and 3.53 µM.
Consider `Cc1cc(C(=O)N2CCC2)nnc1N1CCc2ncc(N3CCO[C@H](C)C3)cc2C1` [Example 537, (R)-azetidin-1-yl(5-methyl-6-(3-(2-methylmorpholino)-7,8-dihydro-1,6-naphthyridin-6(5H)-yl)pyridazin-3-yl)methanone], for which the Emax at 30 µM came out at 96% and the EC50 is 0.131 µM.
Turning to `Cc1c(C#N)nnc(N2CCc3ncc(-c4cc(F)nc(F)c4)cc3C2)c1C` [compound 75, 6-[3-(2,6-difluoro-4-pyridyl)-7,8-dihydro-5H-1,6-naphthyridin-6-yl]-4,5-dimethyl-pyridazine-3-carbonitrile], the Emax at 30 µM was 58% and the EC50 was 0.666 µM.
The corresponding values for `[2H]C([2H])(NC(=O)c1cc(C)c(N2CCc3ncc(C(F)(F)F)cc3C2)nn1)c1ccncc1` [Example 505, 5-methyl-N-(pyridin-4-ylmethyl-d2)-6-(3-(trifluoromethyl)-7,8-dihydro-1,6-naphthyridin-6(5H)-yl)pyridazine-3-carboxamide] are 112% and 0.021 µM.
The corresponding values for `Cc1c(C#N)nnc(N2CCc3ncc(C4CC4)cc3C2)c1C` [Example 317, 6-(3-cyclopropyl-7,8-dihydro-1,6-naphthyridin-6(5H)-yl)-4,5-dimethylpyridazine-3-carbonitrile] are 85% and 0.098 µM.
The matching figures for `Cc1nn(C)cc1-c1cnc2c(c1)CN(c1nc(C(F)(F)F)nc(Cl)c1C)CC2` [compound 245, 6-(6-chloro-5-methyl-2-(trifluoromethyl)pyrimidin-4-yl)-3-(1,3-dimethyl-1/-pyrazol-4-yl)-5,6,7,8-tetrahydro-1,6-naphthyridine]: 56% and 0.641 µM.
With `Cc1cc(C#N)cnc1N1CCc2ncc(Nc3cccc(C(F)(F)F)c3F)cc2C1` [compound 113, 6-[3-[2-fluoro-3-(trifluoromethyl)anilino]-7,8-dihydro-5H-1,6-naphthyridin-6-yl]-5-methyl-pyridine-3-carbonitrile], the Emax at 30 µM amounted to 98% and the EC50 is 1.45 µM.
The corresponding values for `Cc1cc(C(=O)NCc2ccc3ncccc3c2)cnc1N1CCc2ncccc2C1` [compound 68, 6-(7,8-dihydro-5H-1,6-naphthyridin-6-yl)-5-methyl-N-(6-quinolylmethyl)pyridine-3-carboxamide] are 43% and 3.14 µM.
With `Cc1ccc(Oc2cnc3c(c2)CN(c2nnc(C#N)c(C)c2C)CC3)c(F)c1` [Example 358, 6-(3-(2-fluoro-4-methylphenoxy)-7,8-dihydro-1,6-naphthyridin-6(5H)-yl)-4,5-dimethylpyridazine-3-carbonitrile], the Emax at 30 µM was 82% and the EC50 was found to be 0.32 µM.
For the compound `Cc1cc(C(=O)NC2CCCC2)cnc1N1CCc2ncccc2C1` [compound 65, N-cyclopentyl-6-(7,8-dihydro-5H-1,6-naphthyridin-6-yl)-5-methyl-pyridine-3-carboxamide], the Emax at 30 µM came to 52% and the EC50 is not below 10 µM.

These data come from patent publication US20250230155A1 (Vanderbilt University, priority 2021, published 2025).
